The NIST ThermoML archive (doi:10.1021/je900672g)

Test: isobaric coefficient of expansion
Conditions: Liquid, DSC

CCC#N [propanenitrile]
isobaric coefficient of expansion
Conditions | 278.15 K | 288.15 K | 298.15 K | 308.15 K | 318.15 K | 328.15 K | 338.15 K | 348.15 K
5000 kPa | 0.00122 1/K | 0.00125 1/K | 0.00128 1/K | 0.0013 1/K | 0.00135 1/K | 0.00139 1/K | 0.00144 1/K | 0.0015 1/K
10000 kPa | 0.0012 1/K | 0.00121 1/K | 0.00123 1/K | 0.00126 1/K | 0.00129 1/K | 0.00133 1/K | 0.00136 1/K | 0.00141 1/K
15000 kPa | 0.00117 1/K | 0.00118 1/K | 0.0012 1/K | 0.00121 1/K | 0.00125 1/K | 0.00127 1/K | 0.0013 1/K | 0.00133 1/K
20000 kPa | 0.00114 1/K | 0.00115 1/K | 0.00117 1/K | 0.00118 1/K | 0.0012 1/K | 0.00122 1/K | 0.00125 1/K | 0.00127 1/K
25000 kPa | 0.00111 1/K | 0.00112 1/K | 0.00113 1/K | 0.00114 1/K | 0.00116 1/K | 0.00118 1/K | 0.0012 1/K | 0.00122 1/K
30000 kPa | 0.00109 1/K | 0.0011 1/K | 0.00111 1/K | 0.00111 1/K | 0.00113 1/K | 0.00114 1/K | 0.00115 1/K | 0.00117 1/K
35000 kPa | 0.00107 1/K | 0.00107 1/K | 0.00108 1/K | 0.00109 1/K | 0.0011 1/K | 0.00111 1/K | 0.00112 1/K | 0.00113 1/K
40000 kPa | 0.00104 1/K | 0.00105 1/K | 0.00105 1/K | 0.00106 1/K | 0.00106 1/K | 0.00107 1/K | 0.00107 1/K | 0.00108 1/K
45000 kPa | 0.00102 1/K | 0.00103 1/K | 0.00103 1/K | 0.00104 1/K | 0.00104 1/K | 0.00105 1/K | 0.00105 1/K | 0.00105 1/K
50000 kPa | 0.001 1/K | 0.00101 1/K | 0.00101 1/K | 0.00101 1/K | 0.00102 1/K | 0.00102 1/K | 0.00102 1/K | 0.00103 1/K
55000 kPa | 0.000991 1/K | 0.000992 1/K | 0.000993 1/K | 0.000994 1/K | 0.001 1/K | 0.001 1/K | 0.00101 1/K | 0.00101 1/K

N#Cc1ccccc1 [benzonitrile]
isobaric coefficient of expansion
Conditions | 5000 kPa | 10000 kPa | 15000 kPa | 20000 kPa | 25000 kPa | 30000 kPa | 35000 kPa | 40000 kPa | 45000 kPa | 50000 kPa
278.15 K | 0.000841 1/K | 0.000831 1/K | 0.000829 1/K | 0.000812 1/K | 0.000795 1/K | 0.000791 1/K | 0.00078 1/K | 0.000772 1/K | 0.00076 1/K | 0.000752 1/K
288.15 K | 0.000845 1/K | 0.000832 1/K | 0.000819 1/K | 0.000811 1/K | 0.000799 1/K | 0.000789 1/K | 0.000772 1/K | 0.000771 1/K | 0.000759 1/K | 0.000754 1/K
298.15 K | 0.000849 1/K | 0.000832 1/K | 0.000825 1/K | 0.000809 1/K | 0.000798 1/K | 0.000788 1/K | 0.000775 1/K | 0.000773 1/K | 0.000759 1/K | 0.000749 1/K
308.15 K | 0.000852 1/K | 0.000842 1/K | 0.000827 1/K | 0.000814 1/K | 0.000799 1/K | 0.000788 1/K | 0.000773 1/K | 0.000765 1/K | 0.000755 1/K | 0.000743 1/K
318.15 K | 0.000857 1/K | 0.00084 1/K | 0.000826 1/K | 0.000811 1/K | 0.000798 1/K | 0.000789 1/K | 0.000773 1/K | 0.000764 1/K | 0.000754 1/K | 0.000743 1/K
328.15 K | 0.000853 1/K | 0.000837 1/K | 0.000819 1/K | 0.000808 1/K | 0.000794 1/K | 0.000782 1/K | 0.000772 1/K | 0.00076 1/K | 0.000751 1/K | 0.000736 1/K
338.15 K | 0.000863 1/K | 0.000843 1/K | 0.000826 1/K | 0.000813 1/K | 0.000799 1/K | 0.000786 1/K | 0.000776 1/K | 0.000762 1/K | 0.000747 1/K | 0.000738 1/K
348.15 K | 0.00087 1/K | 0.00085 1/K | 0.000832 1/K | 0.000818 1/K | 0.000802 1/K | 0.000788 1/K | 0.000774 1/K | 0.000761 1/K | 0.000749 1/K | 0.000737 1/K

CCC[N+](=O)[O-] [1-nitropropane]
isobaric coefficient of expansion
Conditions | 278.15 K | 288.15 K | 298.15 K | 308.15 K | 318.15 K | 328.15 K | 338.15 K | 348.15 K
5000 kPa | 0.00105 1/K | 0.00106 1/K | 0.00108 1/K | 0.00109 1/K | 0.00113 1/K | 0.00115 1/K | 0.00119 1/K | 0.00122 1/K
10000 kPa | 0.00103 1/K | 0.00104 1/K | 0.00105 1/K | 0.00106 1/K | 0.00109 1/K | 0.00111 1/K | 0.00113 1/K | 0.00117 1/K
15000 kPa | 0.00101 1/K | 0.00101 1/K | 0.00103 1/K | 0.00104 1/K | 0.00106 1/K | 0.00107 1/K | 0.00109 1/K | 0.00111 1/K
20000 kPa | 0.000982 1/K | 0.000991 1/K | 0.001 1/K | 0.00101 1/K | 0.00103 1/K | 0.00104 1/K | 0.00105 1/K | 0.00107 1/K
25000 kPa | 0.000966 1/K | 0.000972 1/K | 0.000977 1/K | 0.000986 1/K | 0.000995 1/K | 0.00101 1/K | 0.00102 1/K | 0.00103 1/K
30000 kPa | 0.000943 1/K | 0.000954 1/K | 0.000958 1/K | 0.000963 1/K | 0.000976 1/K | 0.000981 1/K | 0.000988 1/K | 0.000996 1/K
35000 kPa | 0.000933 1/K | 0.000932 1/K | 0.000941 1/K | 0.000945 1/K | 0.000952 1/K | 0.000957 1/K | 0.000964 1/K | 0.000967 1/K
40000 kPa | 0.000913 1/K | 0.000916 1/K | 0.00092 1/K | 0.000921 1/K | 0.000927 1/K | 0.00093 1/K | 0.00093 1/K | 0.000932 1/K
45000 kPa | 0.000902 1/K | 0.000902 1/K | 0.000904 1/K | 0.000906 1/K | 0.00091 1/K | 0.000912 1/K | 0.000914 1/K | 0.000915 1/K
50000 kPa | 0.000885 1/K | 0.000887 1/K | 0.000889 1/K | 0.000891 1/K | 0.000895 1/K | 0.000894 1/K | 0.000894 1/K | 0.000894 1/K
55000 kPa | 0.000871 1/K | 0.000874 1/K | 0.000875 1/K | 0.000873 1/K | 0.00088 1/K | 0.00088 1/K | 0.000883 1/K | 0.000879 1/K
